{"source": "patent US5382586A", "about": "“Aryl (or heteroaryl)piperazinylalkylazole derivatives, their preparation and their application as medicaments” (priority 1991, dated 1995)", "type_in_all_cases": "in vivo, mouse", "key": {"[1]": {"system": "mice, abstinence syndrome induced by cocaine, diazepam, alcohol or nicotine", "experiment": "light box/dark box test: inhibition of the abstinence syndrome", "design": "Time in box, dark (D) / Latent period L-D: unit not given here", "description": "The light box/dark box test described by B. Costall et al. (J. Phar. Pharmacol., 1988, 40: 494-500) is used. The mouse is placed in the light zone of a box divided into two compartments, one brightly illuminated, the light box, and the other with little illumination, the dark box.\n1) The number of times the mouse stands up on the hind paws in each compartment during a 5 minute period is counted (see Column 1 of Table V).\n2) The activity in each compartment is given by counting the number of crossings through the squares which form the divisions of each compartment (see Column 2 of Table V).\n3) The time passed in the dark box during the 5 minute counting period is determined (see Column 3 of Table 5).\n4) The initial latent period is determined, that is to say the time which elapses after the animal is placed in the light box, at the start of the test, before it enters the dark box (see Column 4 of Table 5).\n1) Dependency on a given treatment (diazepam, cocaine, alcohol or nicotine) employing daily administration over a period of 7 or 14 days.\nDiazepam: 10 mg/kg i.p. twice per day over a period of 7 days.\nCocaine: 1 mg/kg i.p. over a period of 14 days.\nAlcohol: Administered at 8% weight/volume in the drinking water over a period of 14 days. Nicotine: 0.1 mg/kg i.p. twice per day over a period of 7 days.\n3) Other different groups receive, in addition to diazepam, cocaine, alcohol or nicotine, a concomitant treatment with products which are the subject of the present invention and, by way of comparison, with buspirone or ipsapirone.\nThe product described and the doses tested were: 4,5-dichloro-2-methyl-1-{4-[4-(2-pyrimidinyl)-1-piperazinyl]-butyl}-1H-imidazole citrate.\n1 μg/kg p.o. twice per day."}, "immobility of mice": {"system": "immobility of mice", "experiment": "desperate behaviour test (antidepressant activity)", "conditions": "i.p.", "description": "The desperate behaviour test in mice, described by R. D. Porsolt et al. (Arch. Int. Pharmacodyn. 1977, 229, 327-336), is used.\nThe animals are placed for 6 minutes in a cylinder containing water, from which they are not able to escape. The period of immobility between minutes 2 and 5 is determined for groups of 10 mice per dosage tested.\nThe product studied is administered i.p. 1 hour before the test. In this test the immobility of the animals is explained as being produced by their depressed state resulting from being faced with an adverse and insoluble situation in a hostile environment such as water.\nIn our test imipramine (30 mg/kg; i.p.) was used as reference product."}, "[2]": {"system": "familiarisation process in mice", "experiment": "light box/dark box test: familiarisation process (improvement of cognition)", "design": "Time in the box, dark (D): unit not given here", "description": "The influence of this product on the familiarisation process of mice in the light box/dark box test described by J. M. Barnes et al., (Pharmacol. Biochem. Behav., 1990, 35, 955-962) is studied. On the one hand, the effect on learning (the speed of familiarisation) and on the other hand the capacity for blocking contrary effects produced by escopolamine are studied.\nThe mouse is placed in the light zone of a box divided into two compartments, one brightly illuminated, the light box, and the other with little illumination, the dark box.\n1) The number of times the mouse stands up on the hind paws in each compartment during a 5 minute period is counted (see Column 1 of the table below).\n2) The activity in each compartment is given by counting the number of crossings through the squares which form the divisions of each compartment (see Column 2 of the table below).\n3) The time passed in the dark box during the 5 minute counting period is determined (see Column 3 of the table below).\n4) The initial latent period is determined, that is to say the time which elapses after the animal is placed in the light box, at the start of the test, before it enters the dark box (see Column 4 of the table below).\nTwo treatments with the vehicle are administered to the control animals per day. Two doses of 0.00001 ng/kg p.o. of compound 42 are administered per day to the animals treated with this product. The same operation is repeated daily for 5 days.\nThe animals learn to remain in the dark box for a longer period and to go into the box more rapidly.\nOn day six escopolamine (2×0.25 mg/kg, i.p.) is administered.\nThey recover the learned habit on day seven."}, "[3]": {"conditions": "24 h after stopping alcohol (alone, or with the named product; Ex. 42 at 1 μg/kg p.o. twice per day)"}, "[4]": {"conditions": "24 h after stopping cocaine (alone, or with the named product; Ex. 42 at 1 μg/kg p.o. twice per day)"}, "[5]": {"conditions": "24 h after stopping diazepam (alone, or with the named product; Ex. 42 at 1 μg/kg p.o. twice per day)"}, "[6]": {"conditions": "24 h after stopping nicotine (alone, or with the named product; Ex. 42 at 1 μg/kg p.o. twice per day)"}, "[7]": {"conditions": "day 1, 0.00001 ng/kg, p.o., twice per day"}, "[8]": {"conditions": "day 2, 0.00001 ng/kg, p.o., twice per day"}, "[9]": {"conditions": "day 3, 0.00001 ng/kg, p.o., twice per day"}, "[10]": {"conditions": "day 4, 0.00001 ng/kg, p.o., twice per day"}, "[11]": {"conditions": "day 5, 0.00001 ng/kg, p.o., twice per day"}, "[12]": {"conditions": "day 6, after 2 treatments with escopolamine (0.25 mg/kg, i.p.), Example 42 at 0.00001 ng/kg p.o. twice per day"}, "[13]": {"conditions": "day 7, 0.00001 ng/kg, p.o., twice per day"}}}
{"smiles": "Cc1nc(Cl)c(Cl)n1CCCCN1CCN(c2ncccn2)CC1.O=C(O)CC(O)(CC(=O)O)C(=O)O", "note": "[Example 42, 4,5-dichloro-2-methyl-1-{4-[4-(2-pyrimidinyl)-1-piperazinyl]-butyl}-1H-imidazole citrate]", "values": [{"measurement": "Activity within 5 min period, dark box (D)", "setting": "[1]; [3]", "result": 23}, {"measurement": "Activity within 5 min period, light box (L)", "setting": "[1]; [3]", "result": 97}, {"measurement": "Latent period L-D", "setting": "[1]; [3]", "result": 20}, {"measurement": "Number of times standing erect within 5 min. period, dark box (D)", "setting": "[1]; [3]", "result": 17}, {"measurement": "Number of times standing erect within 5 min. period, light box (L)", "setting": "[1]; [3]", "result": 86}, {"measurement": "Time in box, dark (D)", "setting": "[1]; [3]", "result": 26}, {"measurement": "Activity within 5 min period, dark box (D)", "setting": "[1]; [4]", "result": 23}, {"measurement": "Activity within 5 min period, light box (L)", "setting": "[1]; [4]", "result": 92}, {"measurement": "Latent period L-D", "setting": "[1]; [4]", "result": 26}, {"measurement": "Number of times standing erect within 5 min. period, dark box (D)", "setting": "[1]; [4]", "result": 20}, {"measurement": "Number of times standing erect within 5 min. period, light box (L)", "setting": "[1]; [4]", "result": 86}, {"measurement": "Time in box, dark (D)", "setting": "[1]; [4]", "result": 30}, {"measurement": "Activity within 5 min period, dark box (D)", "setting": "[1]; [5]", "result": 19}, {"measurement": "Activity within 5 min period, light box (L)", "setting": "[1]; [5]", "result": 96}, {"measurement": "Latent period L-D", "setting": "[1]; [5]", "result": 28}, {"measurement": "Number of times standing erect within 5 min. period, dark box (D)", "setting": "[1]; [5]", "result": 17}, {"measurement": "Number of times standing erect within 5 min. period, light box (L)", "setting": "[1]; [5]", "result": 85}, {"measurement": "Time in box, dark (D)", "setting": "[1]; [5]", "result": 36}, {"measurement": "Activity within 5 min period, dark box (D)", "setting": "[1]; [6]", "result": 20}, {"measurement": "Activity within 5 min period, light box (L)", "setting": "[1]; [6]", "result": 102}, {"measurement": "Latent period L-D", "setting": "[1]; [6]", "result": 23}, {"measurement": "Number of times standing erect within 5 min. period, dark box (D)", "setting": "[1]; [6]", "result": 18}, {"measurement": "Number of times standing erect within 5 min. period, light box (L)", "setting": "[1]; [6]", "result": 90}, {"measurement": "Time in box, dark (D)", "setting": "[1]; [6]", "result": 29}, {"measurement": "anxiolytic response when the administration is stopped", "setting": "[1]; diazepam, cocaine, alcohol or nicotine stopped, 1 μg/kg p.o. twice per day", "result": "maintains a significant anxiolytic response"}, {"measurement": "inhibition of the abstinence syndrome", "setting": "[1]; induced by diazepam, cocaine, alcohol and nicotine, 1 μg/kg p.o. twice per day", "result": "inhibits the abstinence syndrome"}, {"measurement": "Period of immobility", "setting": "immobility of mice; 1 mg/kg, p < 0.05, control 118 s", "result": 64, "unit": "s"}, {"measurement": "antidepressant activity (reduction of the period of immobility)", "setting": "immobility of mice; mice", "result": "significantly reduces the period of immobility"}, {"measurement": "Activity within 5 min. period, dark (D)", "setting": "[2]; [7]", "result": 82}, {"measurement": "Activity within 5 min. period, light (L)", "setting": "[2]; [7]", "result": 36}, {"measurement": "Latent period L-D", "setting": "[2]; [7]", "result": 11}, {"measurement": "No. of times standing erect within 5 min period, dark (D)", "setting": "[2]; [7]", "result": 79}, {"measurement": "No. of times standing erect within 5 min period, light (L)", "setting": "[2]; [7]", "result": 23}, {"measurement": "Time in the box, dark (D)", "setting": "[2]; [7]", "result": 60}, {"measurement": "Activity within 5 min. period, dark (D)", "setting": "[2]; [8]", "result": 167}, {"measurement": "Activity within 5 min. period, light (L)", "setting": "[2]; [8]", "result": 11}, {"measurement": "Latent period L-D", "setting": "[2]; [8]", "result": 2}, {"measurement": "No. of times standing erect within 5 min period, dark (D)", "setting": "[2]; [8]", "result": 147}, {"measurement": "No. of times standing erect within 5 min period, light (L)", "setting": "[2]; [8]", "result": 10}, {"measurement": "Time in the box, dark (D)", "setting": "[2]; [8]", "result": 80}, {"measurement": "Activity within 5 min. period, dark (D)", "setting": "[2]; [9]", "result": 179}, {"measurement": "Activity within 5 min. period, light (L)", "setting": "[2]; [9]", "result": 10}, {"measurement": "Latent period L-D", "setting": "[2]; [9]", "result": 2}, {"measurement": "No. of times standing erect within 5 min period, dark (D)", "setting": "[2]; [9]", "result": 156}, {"measurement": "No. of times standing erect within 5 min period, light (L)", "setting": "[2]; [9]", "result": 8}, {"measurement": "Time in the box, dark (D)", "setting": "[2]; [9]", "result": 79}, {"measurement": "Activity within 5 min. period, dark (D)", "setting": "[2]; [10]", "result": 183}, {"measurement": "Activity within 5 min. period, light (L)", "setting": "[2]; [10]", "result": 9}, {"measurement": "Latent period L-D", "setting": "[2]; [10]", "result": 1.5}, {"measurement": "No. of times standing erect within 5 min period, dark (D)", "setting": "[2]; [10]", "result": 161}, {"measurement": "No. of times standing erect within 5 min period, light (L)", "setting": "[2]; [10]", "result": 9}, {"measurement": "Time in the box, dark (D)", "setting": "[2]; [10]", "result": 83}, {"measurement": "Activity within 5 min. period, dark (D)", "setting": "[2]; [11]", "result": 176}, {"measurement": "Activity within 5 min. period, light (L)", "setting": "[2]; [11]", "result": 12}, {"measurement": "Latent period L-D", "setting": "[2]; [11]", "result": 1}, {"measurement": "No. of times standing erect within 5 min period, dark (D)", "setting": "[2]; [11]", "result": 151}, {"measurement": "No. of times standing erect within 5 min period, light (L)", "setting": "[2]; [11]", "result": 11}, {"measurement": "Time in the box, dark (D)", "setting": "[2]; [11]", "result": 82}, {"measurement": "Activity within 5 min. period, dark (D)", "setting": "[2]; [12]", "result": 181}, {"measurement": "Activity within 5 min. period, light (L)", "setting": "[2]; [12]", "result": 14}, {"measurement": "Latent period L-D", "setting": "[2]; [12]", "result": 1.5}, {"measurement": "No. of times standing erect within 5 min period, dark (D)", "setting": "[2]; [12]", "result": 172}, {"measurement": "No. of times standing erect within 5 min period, light (L)", "setting": "[2]; [12]", "result": 10}, {"measurement": "Time in the box, dark (D)", "setting": "[2]; [12]", "result": 81}, {"measurement": "Activity within 5 min. period, dark (D)", "setting": "[2]; [13]", "result": 187}, {"measurement": "Activity within 5 min. period, light (L)", "setting": "[2]; [13]", "result": 8}, {"measurement": "Latent period L-D", "setting": "[2]; [13]", "result": 1}, {"measurement": "No. of times standing erect within 5 min period, dark (D)", "setting": "[2]; [13]", "result": 181}, {"measurement": "No. of times standing erect within 5 min period, light (L)", "setting": "[2]; [13]", "result": 8}, {"measurement": "Time in the box, dark (D)", "setting": "[2]; [13]", "result": 83}, {"measurement": "effect on the effects of escopolamine", "setting": "[2]; escopolamine 2×0.25 mg/kg, i.p., day six", "result": "blocks the effects of escopolamine"}, {"measurement": "cognition-improving activity", "setting": "[2]; mice", "result": "has a cognition-improving activity"}, {"measurement": "effect on the learning process", "setting": "[2]; mice", "result": "improves the learning process"}]}
